In the NIST ThermoML archive (doi:10.1016/j.jct.2007.03.004):
Numbers after ± are expanded uncertainties.

What was measured:
[1] = Liquid; for mass density: 293.15 K, 101.33 kPa; for Normal boiling temperature: Distillation
[2] = refractive index (Na D-line) (dimensionless); settings: 293.15 K; 101.33 kPa; Liquid; Standard Abbe refractometry

mass density [1] | Normal boiling temperature [1] | refractive index [2] | Structure (SMILES)
1040.22 ± 0.5 kg/m3 | 217.7 ± 0.2 °C | 1.42014 ± 0.0007 | CCOC(=O)CCC(=O)OCC [diethyl butanedioate]
1022.04 ± 1.2 kg/m3 | 236.5 ± 0.2 °C | 1.42414 ± 0.00078 | CCOC(=O)CCCC(=O)OCC [diethyl glutarate]
1007.63 ± 0.41 kg/m3 | 245.2 ± 0.2 °C | 1.42725 ± 0.0007 | CCOC(=O)CCCCC(=O)OCC [diethyl hexanedioate]
988.04 ± 0.41 kg/m3 | 141.4 ± 0.2 °C | 1.3808 ± 0.0007 | CCC(=O)O [propanoic acid]
